In patent US6960594B2, “Thiophene and furan 2,5-dicarboxamides useful in the treatment of cancer” (Shire BioChem Inc., priority 1998, dated 2005) one finds IC50 data, which are given here for one molecule.

One test has as its target T1, GP IIb-IIIa (αIIbβ3) (Homo sapiens, UniProt P05106+P08514).
T1 construct: purchased Calbiochem
Nature of the test: Fibrinogen binding to immobilized GP IIb-IIIa (αIIbβ3). On the procedure:
The wells of plastic microtiter plates were coated overnight at 4° C. with purified active αIIbβ3 (Calbiochem) or placental αvβ3 at 0.5 ug/mL (100 uL/well) in a buffer containing 150 mM NaCl, 20 mM Tris, pH 7.4, 1 mM MgCl2, 0.2 mM MnCl2, and including 1 mM CaCl2 for αIIbβ3. Blocking of nonspecific sites was achieved by incubating the wells with 35 mg/mL bovine serum albumin (BSA) for at least 2 hours at 37° C. Biotinylated-fibrinogen (10 nM) was added in 0.2 mL binding buffer (100 mM NaCl, 50 mM Tris, pH 7.4, 1 mM MgCl2, 0.2 mM MnCl2 and 1 mg/mL BSA including 1 mM CaCl2 for αIIbβ3) to the wells in triplicate in the absence or presence of increasing concentrations of compounds of interest (0.001-100 uM) and further incubated for 2 hours at 37° C. Nonbound fibrinogen was removed by five washes with binding buffer. Avidin conjugated to alkaline phosphatase (Sigma), diluted in binding buffer, was added and incubated for two hours at 37° C. The plates were washed five times with binding buffer, and after addition of the substrate PNPP (Pierce), the enzyme activity was measured by the absorbance at 405 nm.

In the next test the test system is HMVEC. Nature of the test: Cell proliferation and cytotoxicity MTT assay, HMVEC. Type of test: cell-based. The note with it: HMVEC, 72 hours culture. The method, then:
The wells of microtiter plates were seeded with 2000 cells/well T24, 2500 cells/well HT29 or 5000 cells/well HMVEC (Cell Systems) in 100 uL, followed by an overnight culture for cell adhesion. The next day, the media is supplemented with 100 uL of 10-fold dilution of compound of interest starting at 10 uM. Following culture for 72 hours, 3-(4,5-dimethyl-2-thiazolyl)-2,5-diphenyltetrazolium bromide (MTT; Sigma) at 2 mg/mL was added to each well (50 uL/well) and further incubated for 4 hours at 37° C. The medium was flicked out and 200 uL of a 1:1 solution of ethanol:acetone followed by 25 uL of glycine buffer (0.1 M glycine, 0.1M NaCl, pH 10.5) is added and the color measured by the absorbance at 570 nm.

Another test concerns the target T2, αvβ3 (Homo sapiens, UniProt P05106+P06756).
T2 construct: expressed in transfected cells; host or cells: K562
Nature of the test: Cell adhesion assay, K562-tr on osteopontin. Type of test: cell-based. The method, then:
The wells of 96-well plates (Immunolon) were coated, by incubation overnight at 4° C., with 5 ug/mL vitronectin, 2 ug/mL osteopontin, or fibronectin or 10 mg/mL BSA in PBS. The protein solution was flicked out and the wells were blocked with 10 mg/mL BSA (0.1 mL) for 1-2 hours at 37° C. […] Cells were lifted with trypsin-EDTA and washed two times with Hank's balanced salt solution minus cations (Sigma) supplemented with 1 mM MgCl2 Cells (75,000 cells/well) were added to coated plates in triplicate and allowed to attach at 37° C. for 1 hour in the presence or absence of specific antibodies (5 ug/mL) or 10-fold dilutions of compounds of interest starting at 10 uM. Nonadherent cells were removed by gentle washing twice with PBS. The adherent cells were solubilized with 1% triton x-100 and detected using a fluorescence plate reader (DYNEX Technologies). The number of attached cells was calculated based upon standard curves for each cell line used in the experiment.

A further test concerns the target T3, α5β1 (Homo sapiens, UniProt P05556+P08648).
T3 construct: Cells HT29, K562, or K562 transfected with αvβ3; endogenous in cells; host or cells: K562
Nature of the test: Cell adhesion assay, K562 on fibronectin. In kind it is cell-based. The note with it: K562 cells, adhesion to fibronectin, 1 hour. On the procedure: The wells of 96-well plates (Immunolon) were coated, by incubation overnight at 4° C., with 5 ug/mL vitronectin, 2 ug/mL osteopontin, or fibronectin or 10 mg/mL BSA in PBS. The protein solution was flicked out and the wells were blocked with 10 mg/mL BSA (0.1 mL) for 1-2 hours at 37° C. Cells HT29, K562, or K562 transfected with αvβ3 (Blystone et al., 1994) were loaded with a fluorescent marker, 5-chloromethylfluorescein diacetate (Molecular Probes, Eugene, Oreg.) for 1 hour at 37° C., then incubated in fresh medium without the fluorescent marker for 1 hour. Cells were lifted with trypsin-EDTA and washed two times with Hank's balanced salt solution minus cations (Sigma) supplemented with 1 mM MgCl2 Cells (75,000 cells/well) were added to coated plates in triplicate and allowed to attach at 37° C. for 1 hour in the presence or absence of specific antibodies (5 ug/mL) or 10-fold dilutions of compounds of interest starting at 10 uM. Nonadherent cells were removed by gentle washing twice with PBS. The adherent cells were solubilized with 1% triton x-100 and detected using a fluorescence plate reader (DYNEX Technologies). The number of attached cells was calculated based upon standard curves for each cell line used in the experiment. Non-specific cell attachment (attachment to wells coated with BSA) was always less than 5%.

T1 sequence (P08514 32-887 limits assumed): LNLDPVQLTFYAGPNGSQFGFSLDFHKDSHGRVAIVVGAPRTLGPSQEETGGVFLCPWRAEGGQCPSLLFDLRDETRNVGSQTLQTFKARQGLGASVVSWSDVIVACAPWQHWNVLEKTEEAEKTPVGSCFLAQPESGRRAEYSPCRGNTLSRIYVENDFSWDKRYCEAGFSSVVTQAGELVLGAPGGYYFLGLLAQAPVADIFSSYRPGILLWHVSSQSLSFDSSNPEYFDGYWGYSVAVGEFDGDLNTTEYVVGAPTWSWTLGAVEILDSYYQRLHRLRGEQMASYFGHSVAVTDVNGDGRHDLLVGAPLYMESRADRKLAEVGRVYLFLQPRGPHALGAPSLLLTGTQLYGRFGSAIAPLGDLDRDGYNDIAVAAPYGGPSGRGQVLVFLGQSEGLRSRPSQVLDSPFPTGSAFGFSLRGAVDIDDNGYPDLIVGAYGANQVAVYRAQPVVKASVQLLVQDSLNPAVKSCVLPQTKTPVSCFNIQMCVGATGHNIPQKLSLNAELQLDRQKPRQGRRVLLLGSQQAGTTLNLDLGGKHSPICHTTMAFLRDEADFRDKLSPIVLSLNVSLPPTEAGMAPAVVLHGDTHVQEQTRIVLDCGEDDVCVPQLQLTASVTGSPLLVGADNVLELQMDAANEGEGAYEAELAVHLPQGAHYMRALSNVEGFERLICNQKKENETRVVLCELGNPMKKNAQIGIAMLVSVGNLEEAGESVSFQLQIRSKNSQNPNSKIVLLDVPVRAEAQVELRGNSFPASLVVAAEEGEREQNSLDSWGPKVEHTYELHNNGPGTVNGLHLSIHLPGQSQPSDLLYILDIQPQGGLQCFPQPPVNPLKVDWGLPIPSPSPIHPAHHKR
T1 sequence (P08514 891-1039 partner limits assumed): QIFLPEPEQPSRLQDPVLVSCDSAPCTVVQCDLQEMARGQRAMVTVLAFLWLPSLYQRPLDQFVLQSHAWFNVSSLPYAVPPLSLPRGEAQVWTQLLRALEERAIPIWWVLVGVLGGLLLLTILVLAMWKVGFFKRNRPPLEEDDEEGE
T1 sequence (P05106 27-788): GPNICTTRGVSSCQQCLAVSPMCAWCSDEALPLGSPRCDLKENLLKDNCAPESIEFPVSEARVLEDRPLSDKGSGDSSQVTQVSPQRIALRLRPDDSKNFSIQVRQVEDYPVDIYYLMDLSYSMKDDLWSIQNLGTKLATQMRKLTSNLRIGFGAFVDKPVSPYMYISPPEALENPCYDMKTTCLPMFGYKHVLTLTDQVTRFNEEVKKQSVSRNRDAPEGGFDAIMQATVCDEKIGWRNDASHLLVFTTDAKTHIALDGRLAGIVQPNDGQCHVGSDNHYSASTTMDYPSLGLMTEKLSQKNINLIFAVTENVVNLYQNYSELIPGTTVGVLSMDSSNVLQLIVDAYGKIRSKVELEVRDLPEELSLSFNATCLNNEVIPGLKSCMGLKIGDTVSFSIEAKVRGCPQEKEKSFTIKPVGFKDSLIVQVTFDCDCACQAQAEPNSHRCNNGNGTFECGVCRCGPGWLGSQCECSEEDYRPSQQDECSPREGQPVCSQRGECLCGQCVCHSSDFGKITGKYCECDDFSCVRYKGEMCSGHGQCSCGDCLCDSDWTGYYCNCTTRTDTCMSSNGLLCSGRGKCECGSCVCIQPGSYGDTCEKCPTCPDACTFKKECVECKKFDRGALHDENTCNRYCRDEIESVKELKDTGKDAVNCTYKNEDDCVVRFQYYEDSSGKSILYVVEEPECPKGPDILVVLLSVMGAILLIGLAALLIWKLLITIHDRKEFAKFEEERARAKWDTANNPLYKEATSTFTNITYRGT
T2 sequence (P06756 31-889 limits assumed): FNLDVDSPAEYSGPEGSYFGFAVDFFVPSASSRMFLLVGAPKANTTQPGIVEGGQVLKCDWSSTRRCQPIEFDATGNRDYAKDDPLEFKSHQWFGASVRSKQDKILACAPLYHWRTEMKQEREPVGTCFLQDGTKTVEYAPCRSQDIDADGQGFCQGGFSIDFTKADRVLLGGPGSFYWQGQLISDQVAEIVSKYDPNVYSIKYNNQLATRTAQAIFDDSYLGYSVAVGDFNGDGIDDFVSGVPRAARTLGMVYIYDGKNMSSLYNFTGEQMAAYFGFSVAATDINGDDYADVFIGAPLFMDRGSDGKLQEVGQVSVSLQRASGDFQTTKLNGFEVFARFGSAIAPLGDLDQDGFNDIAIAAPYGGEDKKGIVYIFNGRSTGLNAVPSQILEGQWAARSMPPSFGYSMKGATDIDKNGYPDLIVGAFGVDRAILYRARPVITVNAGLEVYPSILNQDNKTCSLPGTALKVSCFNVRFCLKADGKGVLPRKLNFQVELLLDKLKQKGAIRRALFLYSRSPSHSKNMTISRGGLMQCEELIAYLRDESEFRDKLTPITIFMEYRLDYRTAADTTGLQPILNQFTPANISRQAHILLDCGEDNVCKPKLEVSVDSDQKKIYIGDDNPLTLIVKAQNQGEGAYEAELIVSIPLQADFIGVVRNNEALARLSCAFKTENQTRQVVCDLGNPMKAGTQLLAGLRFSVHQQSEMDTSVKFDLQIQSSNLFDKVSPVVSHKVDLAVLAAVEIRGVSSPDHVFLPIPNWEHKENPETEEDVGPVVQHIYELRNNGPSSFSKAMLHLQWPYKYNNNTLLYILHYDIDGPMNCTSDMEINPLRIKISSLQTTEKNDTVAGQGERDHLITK
T2 sequence (P06756 891-1048 partner limits assumed): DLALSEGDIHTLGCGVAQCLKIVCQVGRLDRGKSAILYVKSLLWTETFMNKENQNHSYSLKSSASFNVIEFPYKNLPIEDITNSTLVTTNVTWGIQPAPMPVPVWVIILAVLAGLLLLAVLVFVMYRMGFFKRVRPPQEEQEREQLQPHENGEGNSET
T2 sequence (P05106 27-788): as the sequence (P05106 27-788) above
T3 sequence (P08648 42-894 limits assumed): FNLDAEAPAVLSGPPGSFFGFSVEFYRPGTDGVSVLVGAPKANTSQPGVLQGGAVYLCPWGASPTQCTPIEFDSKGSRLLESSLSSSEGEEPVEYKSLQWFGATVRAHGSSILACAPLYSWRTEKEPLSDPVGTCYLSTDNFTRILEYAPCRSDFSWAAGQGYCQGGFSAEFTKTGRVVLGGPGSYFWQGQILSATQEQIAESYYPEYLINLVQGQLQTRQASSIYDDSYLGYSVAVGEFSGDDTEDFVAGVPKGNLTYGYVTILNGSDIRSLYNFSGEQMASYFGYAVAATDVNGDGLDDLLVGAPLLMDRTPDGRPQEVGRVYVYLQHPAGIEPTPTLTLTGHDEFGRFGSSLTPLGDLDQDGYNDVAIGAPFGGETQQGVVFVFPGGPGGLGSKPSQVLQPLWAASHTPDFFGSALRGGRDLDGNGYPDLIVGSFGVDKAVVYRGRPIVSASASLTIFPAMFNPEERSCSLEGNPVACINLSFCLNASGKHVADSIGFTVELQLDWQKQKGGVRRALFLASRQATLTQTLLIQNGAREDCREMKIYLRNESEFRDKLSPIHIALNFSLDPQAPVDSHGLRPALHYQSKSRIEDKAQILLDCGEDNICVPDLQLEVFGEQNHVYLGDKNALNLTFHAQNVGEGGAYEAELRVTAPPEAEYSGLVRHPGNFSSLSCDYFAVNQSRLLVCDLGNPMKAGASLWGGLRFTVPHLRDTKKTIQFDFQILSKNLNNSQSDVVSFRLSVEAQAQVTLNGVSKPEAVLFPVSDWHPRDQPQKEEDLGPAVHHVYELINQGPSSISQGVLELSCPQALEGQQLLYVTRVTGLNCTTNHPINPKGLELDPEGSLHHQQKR
T3 sequence (P08648 895-1049 partner limits assumed): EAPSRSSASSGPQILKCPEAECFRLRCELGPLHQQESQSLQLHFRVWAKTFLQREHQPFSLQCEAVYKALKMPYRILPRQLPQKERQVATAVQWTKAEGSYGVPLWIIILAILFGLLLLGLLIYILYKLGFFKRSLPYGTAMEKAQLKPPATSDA
T3 sequence (P05556 21-798): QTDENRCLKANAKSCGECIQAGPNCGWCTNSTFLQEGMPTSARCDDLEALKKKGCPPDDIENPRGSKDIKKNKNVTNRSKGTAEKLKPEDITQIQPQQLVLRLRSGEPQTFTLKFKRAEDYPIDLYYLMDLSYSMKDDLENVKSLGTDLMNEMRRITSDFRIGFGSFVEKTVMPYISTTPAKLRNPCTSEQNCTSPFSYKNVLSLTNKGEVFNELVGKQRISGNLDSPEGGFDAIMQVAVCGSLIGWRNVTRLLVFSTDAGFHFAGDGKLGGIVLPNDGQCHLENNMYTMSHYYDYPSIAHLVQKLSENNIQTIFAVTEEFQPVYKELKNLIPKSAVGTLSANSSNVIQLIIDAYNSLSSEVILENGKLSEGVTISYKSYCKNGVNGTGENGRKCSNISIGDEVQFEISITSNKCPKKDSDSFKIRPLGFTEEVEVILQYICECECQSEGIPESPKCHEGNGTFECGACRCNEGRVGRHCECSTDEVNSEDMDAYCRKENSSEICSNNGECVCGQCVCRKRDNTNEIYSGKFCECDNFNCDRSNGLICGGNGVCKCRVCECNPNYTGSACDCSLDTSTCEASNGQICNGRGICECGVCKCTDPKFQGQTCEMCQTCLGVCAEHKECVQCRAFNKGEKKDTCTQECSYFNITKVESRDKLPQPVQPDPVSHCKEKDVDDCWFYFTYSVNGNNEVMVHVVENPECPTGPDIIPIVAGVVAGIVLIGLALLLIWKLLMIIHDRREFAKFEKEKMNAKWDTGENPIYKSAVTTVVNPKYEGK

For `NCCCNC(=O)c1ccc(C(=O)NC(CC(=O)O)c2ccccc2)s1.O=C(O)C(F)(F)F` (stereo not shown) [Compound VII, 3-{[5-(3-Amino-propylcarbamoyl)-thiophene-2-carbonyl]-amino}-3-phenyl-propionic acid trifluoroacetic acid salt], the IC50 on GP IIb-IIIa (αIIbβ3) is 13.7 µM; with HMVEC, greater than 10 µM; against αvβ3, greater than 10 µM; against α5β1, greater than 10 µM.
